Where two headings read alike, the source gives them in different places.
Assays:
[1] = Tissue uptake study: plasma and tissue concentrations of abiraterone and abiraterone decanoate after single IV or IM injection; type: in vivo, rats, strain CD [Crl:CD(SD)]; settings: CD [Crl:CD(SD)], rat, intramuscular, 90 mg/kg
Description: The objective of this study is to collect tissue samples for the determination of the uptake of abiraterone decanoate and abiraterone following intravenous (IV) and intramuscular (IM; abiraterone decanoate only) injection. Additionally, blood steroid levels also were evaluated.
(§1) Vehicle for IM injection: Corn oil with 10% benzyl alcohol (w/v) and 20% benzyl benzoate (w/v). The study followed the protocols described below.
For intramuscular injections, the test article and vehicle will be administered once as a single intramuscular dose on Day 1 to animals in Groups 1 and 3. Doses will be administered via bolus intramuscular injection into the biceps femoris on the hind legs. The Test article will be warmed at 35° C. (±5°) for at least 1 hour prior to dosing. Individual doses will be based on the most recent body weights.
For IV injections, the test article will be administered once on Day 1 as a single intravenous bolus injection to animals in Groups 2 and 4. The test article will be administered via the tail vein as a bolus intravenous injection (less than 2 minutes). Individual doses will be based on the most recent body weights.
(§2) For serum steroid analysis, blood samples were collected from animals in each study group at predose and at terminal necropsy according to the following protocol. Animals were designated for 72 hr and 168 hr necropsy, the animals will be fasted overnight before scheduled blood collections. Plasma samples will be used for ACTH level analysis. Serum samples will be used for LH level analysis and steroid level analysis. Plasma samples will also be collected at various time points and be analyzed for abiraterone decanoate and abiraterone. Representative samples of tissues will be collected and snap frozen and analyzed. Lung, Liver, Adrenal glands, Prostate, Testes (Sample 1 and 2) and lymph nodes tissues will be collected. Lymph node(s) draining administration site(s): Inguinal (Groups 1-4) and Iliac (Groups 1 and 3 only). Lymph node, mandibular and Lymph node mesenteric tissues will also be collected.

[2] = cynomolgus monkey, in vivo
Description: Test system/animals: gonadally intact, sexually mature, male cynomolgus monkeys. Administration of Test Materials: The vehicle control and test article were administered once every 2 weeks for 13 weeks (Days 1, 15, 29, 43, 57, and 71) during the study via intramuscular injection. […] The dose levels were 20, 60, or 200 mg/kg/dose and administered at a dose volume of 0.10, 0.15, and 0.25 mL/kg/site, respectively. The control group received the vehicle control in the same manner as the treated groups at a dose volume of 0.25 mL/kg/site.
The vehicle control and test article formulations were administered via bolus intramuscular injection into the epaxial muscles of the lumbar back. Animals at 0 and 200 mg/kg/dose were dosed in 4 dose sites, animals at 20 mg/kg/dose were dosed in 1 dose site, and animals at 60 mg/kg/dose were dosed in 2 dose sites. The needle (23-gauge, ⅝-inch) was inserted perpendicular to the skin surface. The location of the injection site was documented for each dose. In addition, each injection site was marked with a single large dot at the exact site of needle insertion, for purposes of erythema and swelling evaluation. Each injection site was remarked at least once weekly and prior to necropsy.
Individual doses were based on the most recent body weights. Formulations were warmed at 35° C. (±5° C.) for at least 1 hour prior to dosing.
The following parameters and endpoints were evaluated in this study: mortality, clinical signs, body weights, body weight gains, ophthalmology and electrocardiographic examinations, clinical pathology parameters (hematology, coagulation, clinical chemistry, and urinalysis), LH and ACTH analyses, toxicokinetic parameters, gross necropsy findings, organ weights, and histopathologic examinations. Statistical analyses were performed using Group Pair-wise Comparisons (general ANOVA).

[3] = molecular target: T1, CYP17 (Rattus norvegicus, UniProt P11715); test: Serum steroid levels after single IV or IM injection in tissue uptake study; type: in vivo, strain CD [Crl:CD(SD)]; settings: rats
T1 construct: endogenous in cells; host or cells: live CD [Crl:CD(SD)] rats (in vivo)
T1 sequence (P11715 1-507): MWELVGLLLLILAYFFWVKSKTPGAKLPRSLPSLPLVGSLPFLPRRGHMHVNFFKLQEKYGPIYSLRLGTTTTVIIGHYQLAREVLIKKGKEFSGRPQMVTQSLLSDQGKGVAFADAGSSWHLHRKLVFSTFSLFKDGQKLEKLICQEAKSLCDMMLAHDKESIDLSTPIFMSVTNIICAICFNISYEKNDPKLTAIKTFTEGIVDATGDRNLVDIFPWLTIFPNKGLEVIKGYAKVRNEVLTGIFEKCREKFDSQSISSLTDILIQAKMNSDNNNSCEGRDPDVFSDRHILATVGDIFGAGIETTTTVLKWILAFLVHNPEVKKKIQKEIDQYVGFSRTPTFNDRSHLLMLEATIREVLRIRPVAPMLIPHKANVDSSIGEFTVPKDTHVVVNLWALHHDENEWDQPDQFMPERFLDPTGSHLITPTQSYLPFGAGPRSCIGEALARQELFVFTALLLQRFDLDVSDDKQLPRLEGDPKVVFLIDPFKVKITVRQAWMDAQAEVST
From the text: as §1, §2

[4] = Abiraterone plasma exposure from abiraterone decanoate formulations with and without benzyl benzoate; type: in vivo; settings: corn oil 70%, benzyl alcohol 10%, benzyl benzoate 20% compared with corn oil 90%, same dose, monkeys
From the text: In some embodiments, the abiraterone prodrug formulation can comprise a combination of benzyl alcohol and benzyl benzoate as cosolvents. In some embodiments, the benzyl alcohol can be present in an amount of about 0-20% (e.g., 0-15% or 0-10%, such as about 10%) of the solvent, and benzyl benzoate can be present in an amount of about 0-50% (e.g., 0-35% or 0-30%, such as about 20%) of the solvent, wherein the balance of the solvent can be any one or more of the pharmaceutically acceptable oil described herein, such as corn oil, castor oil, sesame oil, peanut oil, cottonseed oil, and/or Miglyol 812, etc.

[5] = single intramuscular dose (90 mg/kg)

Compound `CCCCCCCCCC(=O)O[C@H]1CC[C@@]2(C)C(=CC[C@@H]3[C@@H]2CC[C@]2(C)C(c4cccnc4)=CC[C@@H]32)C1` [Abiraterone Decanoate, abiraterone decanoate] has a concentration at 7 days ([1]; iliac lymph node, read-out: Decanoate concentration, iliac lymph) of 91000 ng/g, a concentration at 7 days ([1]; inguinal lymph node, read-out: Decanoate concentration, Inguinal Lymph) of 254 ng/g and a concentration at 7 days ([1]; liver, read-out: Decanoate concentration, Liver) of 10.4 ng/g. It also gave a concentration at 7 days ([1]; lung, read-out: Decanoate concentration, Lung) of 735 ng/g, a concentration at 7 days ([1]; male, adrenal, read-out: Decanoate concentration, Adrenal) of 12.1 ng/g and a concentration at 7 days ([1]; male, plasma, read-out: Decanoate concentration, Plasma) of 3.1 ng/mL. For the same compound, the concentration at 7 days ([1]; male, prostate, read-out: Decanoate concentration, Prostate) was 0 ng/g, the concentration at 7 days ([1]; male, testes, read-out: Decanoate concentration, Testes) was 1.3 ng/g and the adrenal gland changes [2] was “minimal to moderate cortical hypertrophy”. For the same compound, the clinical observations [2] was “swelling and/or nodules at the injection sites”, the “findings in the lung” value [2] was “minimal to moderate granulomatous inflammation” and the “ophthalmology findings, qualitative or quantitative ECG parameters” value [2] was “no effect”. The “test article-related changes in the epididymis” value [2] was “mild to severe reduced luminal sperm and/or minimal to mild increased germ cell debris”, the “test article-related changes in the prostate gland” value [2] was “mild to moderate prostate gland atrophy” and the “test article-related changes in the seminal vesicle” value [2] was “minimal to mild seminal vesicle atrophy”. The “test article-related changes in the testes” value [2] was “minimal to moderate germ cell depletion and minimal to mild Leydig cell hypertrophy”, the “test article-related changes in the thymus” value [2] was “minimal to mild increased lymphocytes” and the “test article-related findings in the mammary gland” value [2] was “minimal to mild lobular and/or duct hyperplasia”. The “microscopic findings at terminal necropsy” value ([2]; 20 mg/kg) was “test article-related microscopic findings”, the albumin concentration ([2]; 20 mg/kg/day) was “minimal decreases” and the “microscopic findings at terminal necropsy” value ([2]; 60 mg/kg) was “test article-related microscopic findings”. The “mean corpuscular volume (MCV) and mean corpuscular hemoglobin (MCH)” value ([2]; 200 mg/kg) was “minimal decreases”, the “red cell distribution width (RDW)” value ([2]; 200 mg/kg) was “minimal increase” and the “highest non-severely toxic dose” value ([2]; male, 13 weeks) was 60 mg/kg/dose. For the same compound, the “circulating androgen levels (androstenedione and testosterone)” value [3, 5] was “potent reductions”, the “levels of progesterone and corticosterone” value [3, 5] was “increased” and the “sustained reduction of testosterone” value ([3]; single intramuscular dose, last time point tested) was ≥ 168 h. For the same compound, the abiraterone plasma exposure [4] was “much higher abiraterone plasma exposure”.

— patent US11957696B2 (Propella Therapeutics, Inc., priority 2021, dated 2024)
